Like-named read-outs stand apart in the source and are kept apart here.
Experiments:
[1] = system: otosclerosis patients with Meniere's syndrome; experiment: Example 2: stepped-up risedronate follow-up, Meniere's syndrome patients; assay type: in vivo, human; conditions: 30 mg twice weekly, after 2 to 33 months, 42 patients
From the text: (§1) The second investigation is cumulative to the first investigation, i.e., some patients reported in Example 1 are included in Example 2.
Meniere's Syndrome after a Period of 2 to 33 Months

[2] = system: otosclerosis patients with tinnitus; experiment: Example 2: stepped-up risedronate follow-up, tinnitus patients; assay type: in vivo, human; conditions: 30 mg twice weekly, after 2 to 31 months, 84 patients
From the text: as §1
Tinnitus or Ear Noise after 2 to 31 Months

[3] = system: otosclerosis patients with dizziness; experiment: Example 1: stepped-up risedronate, dizziness patients; assay type: in vivo, human; conditions: 30 mg twice weekly, after 3 to 25 months, 76 patients
Description: (§2) Patients were administered the bisphosphonate to see if dizziness could disappear or if associated symptoms of hearing loss or ear noise could be improved.
(§3) In the first study, the following populations having the symptom stated were treated with a dosing schedule of 30 mg risedronate twice weekly (double the recommended dose for treating osteoporosis).

[4] = system: otosclerosis patients with dizziness; experiment: Example 2: stepped-up risedronate follow-up, dizziness patients; assay type: in vivo, human; conditions: 30 mg twice weekly, after 2 to 32 months, 155 patients
From the text: as §1
Dizziness after a Period of 2 to 32 Months

[5] = system: otosclerosis patients with tinnitus; experiment: Example 1: stepped-up risedronate, tinnitus patients; assay type: in vivo, human; conditions: 30 mg twice weekly, after 3 to 19 months, 29 patients
Description: This symptom can be a mild distraction, to an annoyance, to difficulty concentrating, to a total distraction. […] There are no current recognized treatments for tinnitus directed at a cause.
as §3
Tinnitus or Ear Noise after a Period of 3 to 19 Months

[6] = system: otosclerosis patients with hearing loss; experiment: Example 1: stepped-up risedronate, hearing loss patients; assay type: in vivo, human; conditions: 30 mg twice weekly, after 3 to 24 months, 46 patients
Description: as §3
Hearing Loss after a Period of 3 to 24 Months

[7] = system: otosclerosis patients with hearing loss; experiment: Example 2: stepped-up risedronate follow-up, hearing loss patients; assay type: in vivo, human; conditions: 30 mg twice weekly, after 3 to 31 months, 125 patients
From the text: as §1
Hearing Loss after a Period of 3 to 31 Months

[8] = system: otosclerosis patients with Meniere's syndrome; experiment: Example 1: stepped-up risedronate, Meniere's syndrome patients; assay type: in vivo, human; conditions: 30 mg twice weekly, after 2 to 25 months, 36 patients
Description: as §3

[9] = system: otosclerosis patients with hearing loss; conditions: 4 mg per injection, after 2 to 10 months, 5 patients (two also on etidronate)
Description: To illustrate the advantages of the invention, patients with the following symptoms were treated.
In a fourth study, the following populations having the symptom stated were administered a zolendronic acid injection in 4 mg per injection no more frequently than every three months. The frequency of administration was dependent upon the patient response and the impending indication. Some patients were also administered etidronate. All patients received calcium plus vitamin D and/or calcium plus fluoride throughout the treatment.
Hearing Loss after 2 to 10 Months

[10] = system: otosclerosis patients with dizziness; experiment: Example 4: intravenous zolendronic acid, dizziness patients; assay type: in vivo, human; conditions: 4 mg per injection, after 4 to 12 months, 3 patients
Description: as §2
In a fourth study, the following populations having the symptom stated were administered a zolendronic acid injection in 4 mg per injection no more frequently than every three months. […] Some patients were also administered etidronate.
Dizziness after 4 to 12 Months

In the case of `O=P(O)(O)C(O)(Cc1cccnc1)P(=O)(O)O` [risedronate, pyridiniyl bisphosphonate], the “clogging or fullness in the ear worse” value [1] is reported as “no patients”, the “dizziness the same or worse” value [1] is reported as “no instances” and the “patients whose clogging or fullness in the ear disappeared” value [1] is reported as 26%. For the same molecule, the “patients whose dizziness disappeared” value [1] was 57%, the “patients with clogging or fullness in the ear better” value [1] was 19% and the “patients with clogging or fullness in the ear the same” value [1] was 7%. The “patients with ear noise better” value [1] was 60%, the “patients with ear noise gone” value [1] was 10% and the “patients with ear noise the same” value [1] was 19%. For the same molecule, the “patients with ear noise worse” value [1] was 2%, the “patients with hearing better” value [1] was 69% and the “patients with hearing the same” value [1] was 14%. For the same molecule, the “patients with hearing worse than with prior bisphosphonate treatment” value [1] was 12%, the “patients with improvement, regular lifestyle free of disabling dizziness” value [1] was 17% and the “improvement in tinnitus or ear noise” value [2] was 76%. The “patients with disappearance of tinnitus” value [2] was 5%, the “patients with reduction of tinnitus to a point where it was no longer a problem” value [2] was 71% and the “patients with tinnitus the same” value [2] was 21%. The “patients with tinnitus worse” value [2] was 2%, the “patients with disappearance of dizziness” value [3] was 38% and the “patients with dizziness worse” value [3] was 3%. For the same molecule, the “patients with no change in dizziness” value [3] was 8%, the “patients with reduced dizziness, no problem in daily living” value [3] was 38% and the relief of dizziness [3] was “greater than 90%”. For the same molecule, the “patients whose dizziness disappeared” value [4] was 45%, the “patients with dizziness worse” value [4] was 2% and the “patients with no change in dizziness” value [4] was 5%. The “patients with reduced dizziness, no problem in daily living” value [4] was 39%, the relief of dizziness [4] was 84% and the “improvement in tinnitus or ear noise” value [5] was 68%. The “patients with disappearance of tinnitus” value [5] was 7%, the “patients with reduction of tinnitus to a point where it was no longer a problem” value [5] was 62% and the “patients with tinnitus the same” value [5] was 24%. The “patients with tinnitus worse” value [5] was 7%, the “patients with hearing improved” value [6] was 70% and the “patients with hearing unchanged” value [6] was 24%. For the same molecule, the “patients with hearing worse” value [6] was 6%, the “patients with hearing improved” value [7] was 51% and the “patients with hearing unchanged” value [7] was 47%. For the same molecule, the “patients with hearing worse” value [7] was 2%, the “clogging or fullness in the ear worse” value [8] was “no patient” and the “dizziness the same or worse” value [8] was “no instances”. For the same molecule, the ear noise worse [8] was “no patient”, the “patients in whom clogging or fullness in the ear was not present” value [8] was 42% and the “patients whose clogging or fullness in the ear disappeared” value [8] was 17%. For the same molecule, the “patients whose dizziness disappeared” value [8] was 50%, the “patients whose ear noise cleared up” value [8] was 8% and the “patients with clogging or fullness in the ear better” value [8] was 22%. For the same molecule, the “patients with clogging or fullness in the ear the same” value [8] was 19%, the “patients with ear noise better” value [8] was 72% and the “patients with ear noise unchanged” value [8] was 19%. For the same molecule, the “patients with hearing better” value [8] was 83%, the “patients with hearing the same” value [8] was 8% and the “patients with hearing worse than with prior bisphosphonate treatment” value [8] was 8%. The “patients with improvement, regular lifestyle free of disabling dizziness” value [8] was 16%.

`O=P(O)(O)C(O)(Cn1ccnc1)P(=O)(O)O` [zolendronic acid] was tested, and the “patients with hearing unchanged” value [9] was 80%, the “patients with hearing worse” value [9] was 20% and the relief of dizziness [10] was about 100%.
